pKd: −log10 of the molar value.

Assay [1] concerns the target T1, human Nav1.7 (hNav1.7) voltage-gated sodium channel alpha subunit (Homo sapiens, UniProt Q15858).
T1 construct: gene SCN9A; alpha subunit, stably expressed in HEK293 cells
Description: Qube automated patch-clamp electrophysiology, HEK293-hNav1.[…], inactivated state (-70 mV); also thallium flux assay IC50 […]. The class given is cell-based.

The target in assay [2] is T1, human Nav1.7 (hNav1.7) voltage-gated sodium channel alpha subunit. Description: Qube automated patch-clamp electrophysiology, HEK293-hNav1.[…], inactivated state (-70 mV). The class given is cell-based. (The patch-clamp technique gives a direct electrical read-out from membranes.)

T1 sequence (Q15858 whole entry): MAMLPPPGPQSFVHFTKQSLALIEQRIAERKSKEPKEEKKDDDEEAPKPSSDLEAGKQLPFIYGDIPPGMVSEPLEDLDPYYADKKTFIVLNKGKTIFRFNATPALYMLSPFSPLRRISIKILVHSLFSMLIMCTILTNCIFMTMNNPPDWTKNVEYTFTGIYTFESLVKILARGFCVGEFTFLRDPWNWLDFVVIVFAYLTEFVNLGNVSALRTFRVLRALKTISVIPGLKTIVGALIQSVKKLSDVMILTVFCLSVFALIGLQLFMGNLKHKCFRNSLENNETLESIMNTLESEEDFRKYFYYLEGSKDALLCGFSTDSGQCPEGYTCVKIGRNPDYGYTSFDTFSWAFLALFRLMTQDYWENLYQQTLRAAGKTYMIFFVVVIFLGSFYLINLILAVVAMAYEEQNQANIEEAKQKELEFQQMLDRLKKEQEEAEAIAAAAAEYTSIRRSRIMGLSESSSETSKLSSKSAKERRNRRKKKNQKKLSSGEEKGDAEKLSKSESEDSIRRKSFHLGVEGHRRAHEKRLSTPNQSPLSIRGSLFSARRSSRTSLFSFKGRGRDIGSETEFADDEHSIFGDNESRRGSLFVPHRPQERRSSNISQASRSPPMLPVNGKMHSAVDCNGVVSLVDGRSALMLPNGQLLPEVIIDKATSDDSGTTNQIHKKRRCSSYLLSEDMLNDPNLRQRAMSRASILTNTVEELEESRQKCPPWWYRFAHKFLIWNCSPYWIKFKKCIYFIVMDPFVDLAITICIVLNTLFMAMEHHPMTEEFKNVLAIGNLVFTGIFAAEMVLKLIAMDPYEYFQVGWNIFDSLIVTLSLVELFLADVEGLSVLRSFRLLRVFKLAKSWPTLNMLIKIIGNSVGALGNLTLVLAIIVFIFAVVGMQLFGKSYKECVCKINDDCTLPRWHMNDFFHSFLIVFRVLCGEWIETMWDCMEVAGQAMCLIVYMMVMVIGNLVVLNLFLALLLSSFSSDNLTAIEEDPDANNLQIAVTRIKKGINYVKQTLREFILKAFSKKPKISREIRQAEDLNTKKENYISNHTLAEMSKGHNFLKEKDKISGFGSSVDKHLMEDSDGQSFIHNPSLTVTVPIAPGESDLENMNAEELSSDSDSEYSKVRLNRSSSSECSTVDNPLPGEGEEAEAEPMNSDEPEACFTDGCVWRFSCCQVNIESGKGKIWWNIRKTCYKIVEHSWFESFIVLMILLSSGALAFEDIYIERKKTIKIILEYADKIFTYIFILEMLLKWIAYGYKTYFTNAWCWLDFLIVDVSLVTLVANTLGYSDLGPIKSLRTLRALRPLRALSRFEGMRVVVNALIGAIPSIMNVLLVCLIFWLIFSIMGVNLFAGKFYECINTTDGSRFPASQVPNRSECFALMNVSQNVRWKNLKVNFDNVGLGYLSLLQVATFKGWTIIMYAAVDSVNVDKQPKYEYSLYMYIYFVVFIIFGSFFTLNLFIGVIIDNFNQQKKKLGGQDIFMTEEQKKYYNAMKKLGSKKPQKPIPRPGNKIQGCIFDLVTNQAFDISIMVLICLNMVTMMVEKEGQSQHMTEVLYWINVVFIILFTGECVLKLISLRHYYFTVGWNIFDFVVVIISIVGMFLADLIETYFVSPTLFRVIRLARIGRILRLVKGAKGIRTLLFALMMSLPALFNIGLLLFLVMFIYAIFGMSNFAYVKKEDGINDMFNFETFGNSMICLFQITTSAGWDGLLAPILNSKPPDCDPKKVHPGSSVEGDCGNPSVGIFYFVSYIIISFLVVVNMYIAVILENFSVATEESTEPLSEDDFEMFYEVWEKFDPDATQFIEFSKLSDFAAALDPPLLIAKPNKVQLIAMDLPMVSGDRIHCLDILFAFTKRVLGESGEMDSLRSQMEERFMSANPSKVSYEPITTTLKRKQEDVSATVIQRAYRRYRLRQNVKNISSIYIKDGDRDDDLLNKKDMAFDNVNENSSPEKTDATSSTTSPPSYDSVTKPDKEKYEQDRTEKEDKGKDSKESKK

On to `CCCCCCCC/C=C\CCCCCCCC(=O)OC(COC(=O)CCCCCCCCCCCCCCC)CO[C@@H]1O[C@H](CO)[C@H](O)[C@H](O)[C@H]1O` (stereo partly drawn) [compound 1, 1-palmitoyl-2-oleoyl-3-(β-D-galactosyl)-glycerol], for which the pKd in assay [1] was 4.30. `CCCCCCCCCCCCCCCC(=O)OC[C@H](CO[C@H]1O[C@H](CS(=O)(=O)O)[C@@H](O)[C@H](O)[C@H]1O)OC(=O)CCCCCCCCCCCCCCC` [compound 2, sulfoquinovosyldiacylglycerin] had a pKd in assay [2] of 4.60.

The term pKd denotes the negative decadic logarithm of the Kd, by convention in mol/L. Read a low pKd as a high Kd.

For the origin of these results see PMC12670511, “Discovery of Nav1.7 Inhibitors through the Screening of Marine Natural Product Extracts” (Journal of Natural Products, 2025).
